Values of other authors in patent publication US11583521B2, “Long-acting injection dosage form of beta 3 adrenoreceptor agonists” (Jubilant Pharma Holdings Inc., priority 2020, dated 2023).

What was measured:
[1] = presence of food in the GI tract
[2] = neutral to acidic pH

In the case of Nc1nc(CC(=O)Nc2ccc(CCNC[C@H](O)c3ccccc3)cc2)cs1 [Mirabegron, (R)-2-(2-aminothiazol-4-yl)-4′-{2-[(2-hydroxy-2 phenylethyl)amino]ethyl}acetanilide], the “bioavailability, effect of food” value [1] is given as “affected by the presence of food in the GI (Gastro-Intestinal) tract” and the solubility in water [2] is given as “soluble in water between neutral to acidic pH”.
